What was measured:
Format in all cases: in vivo
[1] = tested on: Nilaparvata lugens; assay: Nilaparvata lugens spray test (NILALU), rice plants; details: 1 ppm; mortality after 3 d
Method: (§1) For all examples the efficiencies of the compositions comprising at least one BCA and at least one specific insecticide has been determined by the “Colby-formula”: The expected efficacy of a given combination of two compounds is calculated as follows (see Colby, S. R., “Calculating Synergistic and antagonistic Responses of Herbicide Combinations”, Weeds 15, pp. 20-22, 1967):
(§2) If • X is the efficacy expressed in % mortality of the untreated control for test compound A at a concentration of m ppm respectively m g/ha, • Y is the efficacy expressed in % mortality of the untreated control for test compound B at a concentration of n ppm respectively n g/ha, • E is the efficacy expressed in % mortality of the untreated control using the mixture of A and B at m and n ppm respectively m and n g/ha, then is E=X+Y−(X×Y/100)
(§3) If the observed insecticidal efficacy of the combination is higher than the one calculated as “E”, then the combination of the two compounds is more than additive, i.e., there is a synergistic effect.
To produce a suitable preparation of active compound, 1 part by weight of active compound is mixed with the stated amount of solvent and emulsifier, and the concentrate is diluted with emulsifier-containing water to the desired concentration. […]
After the specified period of time, mortality in % is determined. […]

[2] = tested on: Myzus persicae; assay: Myzus persicae spray test (MYZUPE), Chinese cabbage leaf-disks; details: mortality after 6 d
Method: as §1, §2, §3
(§4) To produce a suitable preparation of active compound, 1 part by weight of active compound is mixed with the stated amount of solvent and emulsifier, and the concentrate is diluted with emulsifier-containing water to the desired concentration. To produce a suitable preparation of a spore suspension the spores are diluted with emulsifier-containing water to the desired concentration.
Chinese cabbage (Brassica pekinensis) leaf-disks infected with all instars of the green peach aphid (Myzus persicae), are sprayed with a preparation of the active ingredient of the desired concentration.
After the specified period of time, mortality in % is determined. 100% means all aphids have been killed; 0% means none of the aphids have been killed. The mortality values determined thus are recalculated using the Colby-formula (see above).

[3] = tested on: Phaedon cochleariae; assay: Phaedon cochleariae spray test, Chinese cabbage leaf-disks; details: mortality after 6 d
Method: as §1, §2, §3, §4
Chinese cabbage (Brassica pekinensis) leaf-disks are sprayed with a preparation of the active ingredient of the desired concentration. Once dry, the leaf disks are infested with mustard beetle larvae (Phaedon cochleariae).
After the specified period of time, mortality in % is determined. 100% means all beetle larvae have been killed and 0% means none of the beetle larvae have been killed. The mortality values determined thus are recalculated using the Colby-formula (see above).

[4] = tested on: Spodoptera frugiperda; assay: Spodoptera frugiperda spray test, cotton leaves; details: 0.8 ppm; mortality after 1 d
Method: as §1, §2
(§5) If the observed insecticidal efficacy of the combination is higher than the one calculated as “E”, then the combination of the two compounds is more than additive, i.e., there is a synergistic effect. […]
(§6) After the specified period of time, mortality in % is determined. […] The mortality values determined thus are recalculated using the Colby-formula (see above).

[5] = tested on: Tetranychus urticae; assay: Tetranychus urticae spray test, OP-resistant, French beans; details: 0.032 g ai/ha; mortality after 2 d
Method: as §1, §2, §5, §6

## N#Cc1nn(-c2c(Cl)cc(C(F)(F)F)cc2Cl)c(N)c1[S+]([O-])C(F)(F)F (stereo not drawn) [Fipronil (I95), Fipronil]
[1]
  Efficacy in % after 3d: 0%
[2]; 4 g/ha
  Efficacy in % after 6d: 0%
[2]; 100 g/ha
  Efficacy in % after 6d: 0%
[3]; 0.25 g ai/ha
  Efficacy in % after 6d: 33%

## CNC(=O)Oc1cc(C)c(SC)c(C)c1 [Methiocarb (I15), Methiocarb]
[2]; 500 g/ha
  Efficacy in % after 6d: 0%
[3]; 20 g ai/ha
  Efficacy in % after 6d: 0%

## CS/C(C)=N\OC(=O)N(C)SN(C)C(=O)O/N=C(\C)SC [Thiodicarb (I21), Thiodicarb]
[4]
  Efficacy in % after 1d: 50%

## Abamectin [Abamectin (I152)]
[5]
  Efficacy in % after 2d: 0%
[3]; 0.8 g ai/ha
  Efficacy in % after 6d: 0%
